Measurements reported in patent publication US20120004285A1, “ERBB-3 (HER3)-SELECTIVE COMBINATION THERAPY” (ENZON PHARMACEUTICALS, INC., priority 2008, published 2012).
Oligonucleotides are written 5' to 3', each unit as a sugar letter and its base; * is a phosphorothioate linkage, no mark a phosphodiester; rarer units and linkages stand in square brackets, end groups in braces. Plain capitals give the bases only. l = locked nucleic acid (LNA); [5mC] = 5-methylcytosine; d = 2'-deoxy (DNA)

Experiments:
Format in all cases: cell-based, human
[1] = test system: ErbB3 mRNA; test: ErbB3 mRNA level by qRT-PCR in A431 cells; conditions: ON180 alone, FIG. 6C
Description: (§1) The cells were treated with either ON180 or an LNA-containing oligonucleotide having a scrambled base sequence as set forth in SEQ ID NO: 236 (hereinafter referred to as “ONCONT”) using the cationic liposome formulation Lipofectamine™-2000 (Invitrogen™) as transfection vehicle. Cells were seeded in 6-well plates (NUNC™) and treated when 50-60% confluent. The transfection of cells by ON180 was performed as described by the manufacturer using serum-free OptiMEM® (Gibco™) and 5 μg/ml Lipofectamine™-2000. ONCONT served as a negative control. The treated cells were incubated at 37° C. for 4 hours and then washed with OptiMEM®, after which regular serum-containing medium was added.
(§2) The treated cells were then subjected to proliferation assay by MTS and ErbB3 mRNA quantitation by qRT-PCR, respectively (see below). Each experiment was performed at least two times.
(§3) Total RNA was extracted from the treated cells as described above, using Qiagen RNeasy Plus Mini Kit (Cat# 74134). One-step qRT-PCR was used to examine ErbB3 mRNA levels in the cells by using the QuantiTect Probe RT-PCR kit (Cat#: 204443; Qiagen) according to the manufacturer's instructions. The sequences for the primers and probes were as follows: […]
(§4) The qRT-PCR was performed on the Applied Biosystems 7500 Fast Real-Time PCR System using 120 ng of total RNA sample. GAPDH mRNA served as an internal control.

[2] = test system: 15PC3 cells; test: Cell proliferation assay (MTS), 15PC3; conditions: FIG. 3A
Description: (§5) Cells were cultured in the medium as described below and maintained at 37° C. at 95% humidity and 5% CO2. Cells were routinely passaged 2-3 times weekly.
(§6) 15PC-3 (Santaris Pharma): The human prostate cancer cell line 15PC-3 was cultured in DMEM (ATCC)+10% fetal bovine serum (FBS)+2 mM Glutamax™ I+gentamicin (25 μg/ml). A549 (ATCC): The human lung cancer cell line A549 was cultured in F12K Medium (ATCC)+10% FBS+2 mM Glutamax™ I+Penicillin (100 u/ml)/Streptomycin (100 μg/ml). DU145 (ATCC): The human prostate cancer cell line DU145 was cultured in Eagle's Minimum Essential Medium (ATCC)+10% FBS+2 mM Glutamax™ I+Penicillin (100 u/ml)/Streptomycin (100 μg/ml). […]
(§7) . The treated cells were then subjected to proliferation assay by MTS and ErbB3 mRNA quantitation by qRT-PCR, respectively (see below). […]
(§8) The proliferation assay was carried out by using CellTiter 96® Aqueous One solution reagent (Promega, Cat# 358B) following the manufacturer's instructions. […] The absorbance was measured at […] with a reference of 650 nm using an ELISA reader (Molecular Devices). The background for the assay was measured from wells containing only medium and was subtracted from the signal from the wells containing cells. The absorbance at 490 nm (OD490 nm) is proportional to the viable cell number in culture.

[3] = test system: SKBR3 cells; test: Cell proliferation assay (MTS), SKBR3; conditions: FIG. 5A
Description: as §5, §6, §7, §8

[4] = test system: DU145 cells; test: Cell proliferation assay (MTS), DU145; conditions: FIG. 4A
Description: as §5, §6, §7, §8

[5] = test system: H1993 cells; test: Cell proliferation assay (MTS), H1993; conditions: ON180 alone, Lipofectamine-2000 transfection, FIG. 2A, 2B, read-out: cell growth IC50
Description: (§9) Cells were routinely passaged 2-3 times weekly.
(§10) 15PC-3 (Santaris Pharma): The human prostate cancer cell line 15PC-3 was cultured in DMEM (ATCC)+10% fetal bovine serum (FBS)+2 mM Glutamax™ I+gentamicin (25 μg/ml). A549 (ATCC): The human lung cancer cell line A549 was cultured in F12K Medium (ATCC)+10% FBS+2 mM Glutamax™ I+Penicillin (100 u/ml)/Streptomycin (100 μg/ml). DU145 (ATCC): The human prostate cancer cell line DU145 was cultured in Eagle's Minimum Essential Medium (ATCC)+10% FBS+2 mM Glutamax™ I+Penicillin (100 u/ml)/Streptomycin (100 μg/ml). A431 (ATCC): The human epidermoid cancer cell line A431 was cultured in DMEM (ATCC)+10% fetal bovine serum (FBS)+2 mM Glutamax™ I+Penicillin (100 u/ml)/Streptomycin (100 μg/ml). SKBR-3 (ATCC): The human breast cancer cell line SKBR3 was cultured in McCoy's 5A Medium. Modified (ATCC)+10% FBS+2 mM Glutamax™ I+Penicillin (100 u/ml)/Streptomycin (100 μg/ml).
(§11) Cells were seeded in 6-well plates (NUNC™) and treated when 50-60% confluent. The transfection of cells by ON180 was performed as described by the manufacturer using serum-free OptiMEM® (Gibco™) and 5 μg/ml Lipofectamine™-2000. ONCONT served as a negative control. The treated cells were incubated at 37° C. for 4 hours and then washed with OptiMEM®, after which regular serum-containing medium was added.

[6] = test system: ErbB3 mRNA; test: ErbB3 mRNA level by qRT-PCR in DU145 cells; conditions: ON180 alone, FIG. 4C
Description: as §1, §2, §3, §4

[7] = test system: A549 cells; test: Cell proliferation assay (MTS), A549; conditions: FIG. 1A
Description: as §5, §6, §7, §8

[8] = test system: ErbB3 mRNA; test: ErbB3 mRNA level by qRT-PCR in SKBR3 cells; conditions: ON180 alone, FIG. 5C
Description: as §1, §2, §3, §4

[9] = test system: ErbB3 mRNA; test: ErbB3 mRNA level by qRT-PCR in 15PC3 cells; conditions: ON180 alone, FIG. 3C
Description: as §1, §2, §3, §4

[10] = test system: ErbB3 mRNA; test: ErbB3 mRNA level by qRT-PCR in H1993 cells; conditions: ON180 alone, FIG. 2C
Description: as §1, §2, §3, §4

[11] = test system: A431 cells; test: Cell proliferation assay (MTS), A431; conditions: ON180 alone, Lipofectamine-2000 transfection, FIG. 6A, 6B, read-out: cell growth IC50
Description: as §9, §10, §11

[12] = test system: ErbB3 mRNA; test: ErbB3 mRNA level by qRT-PCR in A549 cells; conditions: ON180 alone, FIG. 1C, read-out: expression of ErbB3 mRNA IC50
Description: as §1, §2, §3, §4

With “5′-TsAsGscscstsgstscsascststs^MeCsTs^MeC-3′ (lT*lA*lG*dC*dC*dT*dG*dT*dC*dA*dC*dT*dT*l[5mC]*lT*l[5mC]) [ON180]” the “ErbB3 mRNA” value [1] was “effectively inhibited”, the IC50 ([2]; ON180 alone, Lipofectamine-2000 transfection, 3B, read-out: cell growth IC50) was less than 2 nM and the IC50 ([3]; ON180 alone, Lipofectamine-2000 transfection, 5B, read-out: cell growth IC50) was less than 5 nM. The IC50 ([4]; ON180 alone, Lipofectamine-2000 transfection, 4B, read-out: cell growth IC50) was less than 5 nM, the IC50 [5] was 1 nM and the “expression of ErbB3 mRNA” value [6] was “effectively inhibited”. For the same compound, the IC50 ([7]; ON180 alone, Lipofectamine-2000 transfection, 1B, read-out: cell growth IC50) was less than 5 nM, the “expression of ErbB3 mRNA” value [8] was “effectively inhibited” and the “ErbB3 mRNA” value [9] was “potently inhibited”. The “expression of ErbB3 mRNA” value [10] was “potently inhibited”, the IC50 [11] was less than 1 nM and the IC50 [12] was less than 2 nM.
In the case of `COc1cc2ncnc(Nc3ccc(F)c(Cl)c3)c2cc1OCCCN1CCOCC1` [gefitinib, reference compound], the “effect of gefitinib on proliferation” value ([2]; gefitinib 20 μM, 48 hours) is reported as “did not affect proliferation”, the “sensitivity of cells to gefitinib” value ([3]; gefitinib alone) is reported as “sensitive” and the “effect of gefitinib on proliferation” value ([4]; gefitinib 40 μM, 48 hours) is reported as “did not affect proliferation”. For the same compound, the “effect of gefitinib alone on proliferation” value ([7]; gefitinib 40 μM, 48 hours) was “did not affect proliferation”.
